# Experimental data as given in the supplement of paper PMC10307832.
# Legend:
# Experiment in all cases: relative viability (nuclei count vs DMSO), 5 days (fraction); higher = more cells survive
# [1] = test system: EPLC-272H
# Method in brief: (§1)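 One day after seeding in 1536-well plates, lung cancer cell lines were dosed by pin tool. Dosing was either single-drug or a fixed anchor-drug dose plus five library-drug doses (not always all listed) in √10 steps. After 5 days, nuclei were stained in one fix-and-stain step and counted on 4× images, and relative viability is the nuclei count of treated wells over that of vehicle wells, given as the median of duplicate plates.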
# [2] = test system: LC-2-ad
# Method in brief: as §1
# [3] = test system: LU99A
# Method in brief: as §1
# [4] = test system: HCC-78
# Method in brief: as §1
# [5] = test system: NCI-H2085
# Method in brief: as §1
# [6] = test system: PC-14
# Method in brief: as §1
# [7] = test system: NCI-H1355
# Method in brief: as §1
# [8] = test system: NCI-H1651
# Method in brief: as §1
# [9] = test system: NCI-H838
# Method in brief: as §1
# [10] = test system: NCI-H2342
# Method in brief: as §1
# [11] = test system: NCI-H358
# Method in brief: as §1
# [12] = test system: NCI-H650
# Method in brief: as §1
# [13] = test system: HCC-15
# Method in brief: as §1
# [14] = test system: UMC-11
# Method in brief: as §1
# [15] = test system: NCI-H2126
# Method in brief: as §1
# [16] = test system: NCI-H2023
# Method in brief: as §1
# [17] = test system: NCI-H2347
# Method in brief: as §1
# [18] = test system: COR-L23
# Method in brief: as §1
# [19] = test system: NCI-H1993
# Method in brief: as §1
# [20] = test system: SW 1573
# Method in brief: as §1
# [21] = test system: ABC-1
# Method in brief: as §1
# [22] = test system: NCI-H1915
# Method in brief: as §1
# [23] = test system: HARA
# Method in brief: as §1
compound,measurement,setting,value
O=C(O)c1ccc(-c2c[nH]c3ncc(-c4ccccc4)cc23)cc1C1CCCC1 + COc1cc2c(Oc3ccc(NC(=O)C4(C(=O)Nc5ccc(F)cc5)CC4)cc3F)ccnc2cc1OCCCN1CCOCC1 [Foretinib] (partner 0.25 µM),relative viability,[1]; first compound 0.04 µM,0.694
same,relative viability,[1]; first compound 0.1265 µM,0.752
same,relative viability,[1]; first compound 0.4 µM,0.585
same,relative viability,[1]; first compound 1.265 µM,0.187
same,relative viability,[2]; first compound 0.04 µM,0.973
same,relative viability,[2]; first compound 0.1265 µM,0.935
same,relative viability,[2]; first compound 0.4 µM,0.798
same,relative viability,[2]; first compound 1.265 µM,0.702
same,relative viability,[3]; first compound 0.04 µM,0.803
same,relative viability,[3]; first compound 0.1265 µM,0.783
same,relative viability,[3]; first compound 0.4 µM,0.729
same,relative viability,[3]; first compound 1.265 µM,0.677
same,relative viability,[4]; first compound 0.1265 µM,0.584
same,relative viability,[4]; first compound 0.4 µM,0.524
same,relative viability,[4]; first compound 1.265 µM,0.531
same,relative viability,[5]; first compound 0.04 µM,1.14
same,relative viability,[5]; first compound 0.1265 µM,0.988
same,relative viability,[5]; first compound 0.4 µM,0.845
same,relative viability,[5]; first compound 1.265 µM,0.56
same,relative viability,[6]; first compound 0.04 µM,0.943
same,relative viability,[6]; first compound 0.1265 µM,0.958
same,relative viability,[6]; first compound 0.4 µM,1.01
same,relative viability,[6]; first compound 1.265 µM,0.941
same,relative viability,[7]; first compound 0.04 µM,1.08
same,relative viability,[7]; first compound 0.1265 µM,0.992
same,relative viability,[7]; first compound 0.4 µM,0.957
same,relative viability,[7]; first compound 1.265 µM,0.622
same,relative viability,[8]; first compound 0.04 µM,0.786
same,relative viability,[8]; first compound 0.1265 µM,0.806
same,relative viability,[8]; first compound 0.4 µM,0.792
same,relative viability,[8]; first compound 1.265 µM,0.607
same,relative viability,[9]; first compound 0.04 µM,1.02
same,relative viability,[9]; first compound 0.1265 µM,1.17
same,relative viability,[9]; first compound 0.4 µM,1.05
same,relative viability,[9]; first compound 1.265 µM,0.923
same,relative viability,[10]; first compound 0.04 µM,1.03
same,relative viability,[10]; first compound 0.1265 µM,1.11
same,relative viability,[10]; first compound 0.4 µM,1.18
same,relative viability,[10]; first compound 1.265 µM,0.991
same,relative viability,[11]; first compound 0.04 µM,0.768
same,relative viability,[11]; first compound 0.1265 µM,0.949
same,relative viability,[11]; first compound 0.4 µM,0.619
same,relative viability,[11]; first compound 1.265 µM,0.397
same,relative viability,[12]; first compound 0.04 µM,1.13
same,relative viability,[12]; first compound 0.1265 µM,1.11
same,relative viability,[12]; first compound 0.4 µM,0.888
same,relative viability,[12]; first compound 1.265 µM,0.71
same,relative viability,[13]; first compound 0.04 µM,1.11
same,relative viability,[13]; first compound 0.1265 µM,1.04
same,relative viability,[13]; first compound 0.4 µM,0.92
same,relative viability,[13]; first compound 1.265 µM,0.678
same,relative viability,[14]; first compound 0.04 µM,1.01
same,relative viability,[14]; first compound 0.1265 µM,1.02
same,relative viability,[14]; first compound 0.4 µM,0.982
same,relative viability,[14]; first compound 1.265 µM,0.77
same,relative viability,[15]; first compound 0.04 µM,1.25
same,relative viability,[15]; first compound 0.1265 µM,1.12
same,relative viability,[15]; first compound 0.4 µM,1.16
same,relative viability,[15]; first compound 1.265 µM,1.2
same,relative viability,[16]; first compound 0.04 µM,0.988
same,relative viability,[16]; first compound 0.1265 µM,1
same,relative viability,[16]; first compound 0.4 µM,0.895
same,relative viability,[16]; first compound 1.265 µM,0.749
same,relative viability,[17]; first compound 0.04 µM,0.861
same,relative viability,[17]; first compound 0.1265 µM,0.783
same,relative viability,[17]; first compound 0.4 µM,1.01
same,relative viability,[17]; first compound 1.265 µM,0.803
same,relative viability,[18]; first compound 0.04 µM,1.02
same,relative viability,[18]; first compound 0.1265 µM,1.19
same,relative viability,[18]; first compound 0.4 µM,0.943
same,relative viability,[18]; first compound 1.265 µM,0.636
same,relative viability,[19]; first compound 0.04 µM,0.788
same,relative viability,[19]; first compound 0.1265 µM,0.834
same,relative viability,[19]; first compound 0.4 µM,0.759
same,relative viability,[19]; first compound 1.265 µM,0.805
same,relative viability,[20]; first compound 0.04 µM,0.977
same,relative viability,[20]; first compound 0.1265 µM,0.901
same,relative viability,[20]; first compound 0.4 µM,0.902
same,relative viability,[20]; first compound 1.265 µM,0.791
same,relative viability,[21]; first compound 0.04 µM,1.02
same,relative viability,[21]; first compound 0.1265 µM,1.24
same,relative viability,[21]; first compound 0.4 µM,1.04
same,relative viability,[21]; first compound 1.265 µM,0.936
same,relative viability,[22]; first compound 0.04 µM,1.13
same,relative viability,[22]; first compound 0.1265 µM,1.11
same,relative viability,[22]; first compound 0.4 µM,1.03
same,relative viability,[22]; first compound 1.265 µM,0.783
same,relative viability,[23]; first compound 0.04 µM,0.836
same,relative viability,[23]; first compound 0.1265 µM,0.952
same,relative viability,[23]; first compound 0.4 µM,0.811
same,relative viability,[23]; first compound 1.265 µM,0.796
O=C(O)c1ccc(-c2c[nH]c3ncc(-c4ccccc4)cc23)cc1C1CCCC1 + N=C(N)NC(=N)NCCc1ccccc1 [Phenformin] (partner 250 µM),relative viability,[1]; first compound 0.04 µM,0.357
same,relative viability,[1]; first compound 0.1265 µM,0.295
same,relative viability,[1]; first compound 0.4 µM,0.356
same,relative viability,[1]; first compound 1.265 µM,0.328
same,relative viability,[2]; first compound 0.04 µM,0.584
same,relative viability,[2]; first compound 0.1265 µM,0.634
same,relative viability,[2]; first compound 0.4 µM,0.536
same,relative viability,[2]; first compound 1.265 µM,0.494
same,relative viability,[3]; first compound 0.04 µM,0.961
same,relative viability,[3]; first compound 0.1265 µM,0.784
same,relative viability,[3]; first compound 0.4 µM,0.865
same,relative viability,[3]; first compound 1.265 µM,0.606
same,relative viability,[4]; first compound 0.1265 µM,0.907
same,relative viability,[4]; first compound 0.4 µM,0.828
same,relative viability,[4]; first compound 1.265 µM,0.683
same,relative viability,[5]; first compound 0.04 µM,0.84
same,relative viability,[5]; first compound 0.1265 µM,0.897
same,relative viability,[5]; first compound 0.4 µM,0.688
same,relative viability,[5]; first compound 1.265 µM,0.595
same,relative viability,[6]; first compound 0.04 µM,0.588
same,relative viability,[6]; first compound 0.1265 µM,0.678
same,relative viability,[6]; first compound 0.4 µM,0.548
same,relative viability,[6]; first compound 1.265 µM,0.604
same,relative viability,[7]; first compound 0.04 µM,0.446
same,relative viability,[7]; first compound 0.1265 µM,0.462
same,relative viability,[7]; first compound 0.4 µM,0.453
same,relative viability,[7]; first compound 1.265 µM,0.276
same,relative viability,[8]; first compound 0.04 µM,0.349
same,relative viability,[8]; first compound 0.1265 µM,0.328
same,relative viability,[8]; first compound 0.4 µM,0.278
same,relative viability,[8]; first compound 1.265 µM,0.189
same,relative viability,[9]; first compound 0.04 µM,0.542
same,relative viability,[9]; first compound 0.1265 µM,0.655
same,relative viability,[9]; first compound 0.4 µM,0.596
same,relative viability,[9]; first compound 1.265 µM,0.511
same,relative viability,[10]; first compound 0.04 µM,0.512
same,relative viability,[10]; first compound 0.1265 µM,0.693
same,relative viability,[10]; first compound 0.4 µM,0.623
same,relative viability,[10]; first compound 1.265 µM,0.491
same,relative viability,[11]; first compound 0.04 µM,0.347
same,relative viability,[11]; first compound 0.1265 µM,0.379
same,relative viability,[11]; first compound 0.4 µM,0.292
same,relative viability,[11]; first compound 1.265 µM,0.124
same,relative viability,[12]; first compound 0.04 µM,0.42
same,relative viability,[12]; first compound 0.1265 µM,0.494
same,relative viability,[12]; first compound 0.4 µM,0.448
same,relative viability,[12]; first compound 1.265 µM,0.399
same,relative viability,[13]; first compound 0.04 µM,0.514
same,relative viability,[13]; first compound 0.1265 µM,0.617
same,relative viability,[13]; first compound 0.4 µM,0.433
same,relative viability,[13]; first compound 1.265 µM,0.234
same,relative viability,[14]; first compound 0.04 µM,0.331
same,relative viability,[14]; first compound 0.1265 µM,0.324
same,relative viability,[14]; first compound 0.4 µM,0.306
same,relative viability,[14]; first compound 1.265 µM,0.265
same,relative viability,[15]; first compound 0.04 µM,0.571
same,relative viability,[15]; first compound 0.1265 µM,0.581
same,relative viability,[15]; first compound 0.4 µM,0.505
same,relative viability,[15]; first compound 1.265 µM,0.441
same,relative viability,[16]; first compound 0.04 µM,0.412
same,relative viability,[16]; first compound 0.1265 µM,0.491
same,relative viability,[16]; first compound 0.4 µM,0.44
same,relative viability,[16]; first compound 1.265 µM,0.278
same,relative viability,[17]; first compound 0.04 µM,0.396
same,relative viability,[17]; first compound 0.1265 µM,0.475
same,relative viability,[17]; first compound 0.4 µM,0.484
same,relative viability,[17]; first compound 1.265 µM,0.405
same,relative viability,[18]; first compound 0.04 µM,0.424
same,relative viability,[18]; first compound 0.1265 µM,0.507
same,relative viability,[18]; first compound 0.4 µM,0.437
same,relative viability,[18]; first compound 1.265 µM,0.268
same,relative viability,[19]; first compound 0.04 µM,0.574
same,relative viability,[19]; first compound 0.1265 µM,0.475
same,relative viability,[19]; first compound 0.4 µM,0.477
same,relative viability,[19]; first compound 1.265 µM,0.513
same,relative viability,[20]; first compound 0.04 µM,0.38
same,relative viability,[20]; first compound 0.1265 µM,0.35
same,relative viability,[20]; first compound 0.4 µM,0.276
same,relative viability,[20]; first compound 1.265 µM,0.299
same,relative viability,[21]; first compound 0.04 µM,0.272
same,relative viability,[21]; first compound 0.1265 µM,0.232
same,relative viability,[21]; first compound 0.4 µM,0.229
same,relative viability,[21]; first compound 1.265 µM,0.181
same,relative viability,[22]; first compound 0.04 µM,0.376
same,relative viability,[22]; first compound 0.1265 µM,0.362
same,relative viability,[22]; first compound 0.4 µM,0.34
same,relative viability,[22]; first compound 1.265 µM,0.295
same,relative viability,[23]; first compound 0.04 µM,0.469
same,relative viability,[23]; first compound 0.1265 µM,0.479
same,relative viability,[23]; first compound 0.4 µM,0.459
same,relative viability,[23]; first compound 1.265 µM,0.372
